The results in this text go back to patent publication US7132546B2, “Aniline derivatives or salts thereof and cytokine production inhibitors containing the same” (Ishihara Sangyo Kaisha, Ltd., priority 2000, dated 2006).

Data set [1] deals with interferon γ (IFN-γ) production. Nature of the data set: Cytokine production inhibitory effect: IFN-γ production by murine spleen cells treated with anti-mouse CD3 antibody and IL-2 (ELISA). It is filed as cell-based, Balb/c mice. The conditions noted are these: anti-CD3 antibody + IL-2, 40 to 48 hours, read-out: IFN-γ production inhibitory ratio (%); for inhibition at 100 ppm: test compound 100 ppm. As to the method:
(§1) Murine spleen cells were treated with anti-mouse CD3 antibody and IL-2 to induce cytokine production. The test compounds were added to the cytokine production system to evaluate their inhibitory effect. Namely, anti-mouse CD3 antibody adjusted to from 10 to 20 μg/ml with borate buffered physiological saline (pH 8.5) was pipetted into a 96-well cell culture plate in an amount of 50 μl/well and left to stand at 4° C. for 18 hours. The unreacted solution was removed, washing with Hank's buffer solution was carried out once, and IL-2 adjusted to 10 ng/ml with a RPMI liquid containing 10% fetal bovine serum (FCS) was pipetted in an amount of 50 μl/well. For the negative control group, a solution alone without anti-CD3 antibody nor IL-2 was applied. Then, the diluted solution of each of the test compounds (concentration: 100 ppm unless otherwise specified) was pipetted in an amount of 50 μl/well, and a cell suspension of 1×10^7 cells/ml, prepared from spleen of Balb/c mice (female, 7 to 10 week old) was pipetted thereinto in an amount of 100 μl/well. After cultivation in an incubator (37° C., 5% carbon dioxide gas) for from 40 to 48 hours, the culture supernatant was recovered to measure the cytokine production amount by ELISA method.
(§2) With respect to interleukin 5 (IL-5) as a typical Th2 type cytokine and interferon γ (IFN-γ) as a typical Th1 type cytokine, measurements were carried out by the following methods, respectively. Namely, quantitative determination of IL-5 was carried out by the following ELISA method. First, rat anti-mouse IL-5 antibody (Endogen Code No. MM-550C) as a primary antibody was diluted with carbonate buffer solution (pH 9.5) to 1 μg/ml, and spread in a 96 well plate (IWAKI, Code No. 3860-096) in an amount of 50 μl/well for coating at 4° C. overnight (16 to 24 hours). Then, the plate was subjected to blocking at 37° C. for 2 hours by phosphate buffered physiological saline containing 10% FCS (pH 7.2) (blocking buffer solution) (250 μl/well). The plate was washed with PBS (washing buffer) containing 0.05% Tween 20 (Nacalai Tesque, Code No. 281-51) four times, and a diluted liquid of the culture supernatant was spread in an amount of 50 μl/well, followed by incubation at room temperature for 1 hour. For preparation of a standard line, recombinant mouse IL-5 (R&D systems, Code No. 405-ML) was employed. The plate was washed with a washing buffer four times, and biotin-labeled rat anti-mouse IL-5 antibody (Pharmingen, Code No. 18062D) as a secondary antibody diluted to 0.5 μg/ml with a blocking buffer containing 0.05% Tween 20 was added thereto (50 μl/well), followed by incubation at room temperature for 1 hour. The plate was washed with a washing buffer four times, strept avidin-labeled peroxidase (ProZyme, Code No. CJ30H001) diluted 800 times with a blocking buffer containing 0.05% Tween 20 was added thereto (50 μl/well), followed by reaction at room temperature for 15 minutes. The plate was washed with a washing buffer four times, and a […] substrate solution (SIGMA, Code No. T-8665) was added thereto in an amount of 100 μl/well for color developing for from 10 to 20 minutes. A 1M sulfuric acid solution was added thereto in an amount of 100 μl/well to terminate the reaction, and absorption (wavelength 450 nm) was measured by means of micro plate reader (SPECTRA max, Wako Pure Chemicals Industries, Ltd.). Quantitative determination of IFN-γ was carried out in the same manner as the measurement of IL-5, employing rat anti-mouse IFN-γ antibody (Pharmingen, Code No. 18181D) and biotin labeled rat anti-mouse IFN-γ antibody (Pharmingen, Code NO. 18112D), as a primary antibody and a secondary antibody, respectively. For preparation of a standard line, recombinant mouse IFN-γ (GENZYME, Code No. 3485) was employed. The experiment was carried out in duplicate, and the average of the cytokine production amount was obtained. […]
In general terms: In an ELISA, binding on a coated surface is turned into a signal by an enzyme label.

The subject of data set [2] is interleukin 5 (IL-5) production. Nature of the data set: Cytokine production inhibitory effect: IL-5 production by murine spleen cells treated with anti-mouse CD3 antibody and IL-2 (ELISA). It is filed as cell-based, Balb/c mice. The conditions noted are these: anti-CD3 antibody + IL-2, 40 to 48 hours, read-out: IL-5 production inhibitory ratio (%); for inhibition at 100 ppm: test compound 100 ppm. The method, then:
as §1, §2

For `O=C(Nc1ccc(OCc2ncc(C(F)(F)F)cc2Cl)cc1)c1cc([N+](=O)[O-])ccc1Cl` [Compound No. 135, N-(4-(3-chloro-5-trifluoromethyl-2-pyridylmethyloxy)phenyl)-2-chloro-5-nitrobenzamide], the melting point (as a rule, the temperature, or range, at which the solid turns liquid) is 193 to 195 °C. The inhibition at 100 ppm in data set [1] came to 33%. In data set [2], the inhibition at 100 ppm came to 62%.

As for `Cc1cc(C23CC4CC(CC(C4)C2)C3)ccc1NC(=O)c1ccc(Cl)cc1Cl` [compound 3], the melting point was 211 °C. In addition, the inhibition at 100 ppm in data set [1] came to 92%. In addition, in data set [2], the inhibition at 100 ppm is 79%.

`O=C(Nc1ccc(Oc2ccc(C(F)(F)F)cn2)c(Cl)c1)c1ccc(Cl)cc1` [compound 5] displayed a melting point of 186 to 188 °C. In addition, in data set [1], the inhibition at 100 ppm came to 83%. In data set [2], the inhibition at 100 ppm was 76%.

`O=C(Nc1ccc(Oc2ccc(C(F)(F)F)cn2)c(Cl)c1)c1cccc(Cl)c1` [compound 6]: the melting point is 160 to 161 °C. For the same compound, the inhibition at 100 ppm in data set [1] was 100%. For the same compound, the inhibition at 100 ppm in data set [2] turned out to be 100%.

The compound `O=C(Nc1ccc(Oc2ccc(C(F)(F)F)cn2)c(Cl)c1)c1cccc(C(F)(F)F)c1` [compound 7] had a melting point of 127 to 129 °C. In addition, in data set [1], the inhibition at 100 ppm turned out to be 100%. In addition, the inhibition at 100 ppm in data set [2] stood at 100%.

For `O=C(Nc1ccc(Oc2ccc(C(F)(F)F)cn2)c(Cl)c1)c1ccc(C(F)(F)F)cc1` [compound 8], the melting point lay in the range of 154 to 155 °C. The inhibition at 10 ppm in data set [1] (test compound 10 ppm) came to 67%. Further, the inhibition at 10 ppm in data set [2] (test compound 10 ppm) worked out at 58%.

`COc1ccc(C(=O)Nc2ccc(Oc3ccc(C(F)(F)F)cn3)c(Cl)c2)cc1OC` [compound 9]: the melting point is 152 to 154 °C. The inhibition at 100 ppm in data set [1] stood at 100%. For the same compound, the inhibition at 100 ppm in data set [2] was found to be 96%.

As for `O=C(Nc1ccc(Oc2ccc(C(F)(F)F)cn2)c(Cl)c1)c1ccccc1O` [compound 15], the melting point was in the range of 165 to 167 °C. The inhibition at 100 ppm in data set [1] turned out to be 100%. In data set [2], the inhibition at 100 ppm is 99%.

Take `O=CNc1cccc(C(=O)Nc2ccc(Oc3ccc(C(F)(F)F)cn3)c(Cl)c2)c1O` [compound 17]: the melting point fell in the range of 159 to 161 °C. Further, in data set [1], the inhibition at 100 ppm turned out to be 100%. The inhibition at 100 ppm in data set [2] stood at 100%.

As for `O=C(Nc1ccc(Cc2ccccc2)cc1)c1cc([N+](=O)[O-])ccc1O` [compound 18], the melting point lay within 211.5 to 214.4 °C. For the same compound, in data set [1], the inhibition at 100 ppm was 100%. The inhibition at 100 ppm in data set [2] was determined as 100%.

Consider `O=C(Nc1ccc(C23CC4CC(CC(C4)C2)C3)cc1)c1cc([N+](=O)[O-])ccc1Cl` [compound 21], for which the melting point stood at 262 °C. In addition, the inhibition at 100 ppm in data set [1] was 89%. The inhibition at 100 ppm in data set [2] worked out at 96%.

As to `Cc1cc(C23CC4CC(CC(C4)C2)C3)ccc1NC(=O)c1ccccc1Cl` [compound 22], the melting point came out at 154 °C. Also, in data set [1], the inhibition at 100 ppm came out at 100%. For the same compound, in data set [2], the inhibition at 100 ppm was 100%.

As for `Cc1cc(C23CC4CC(CC(C4)C2)C3)ccc1NC(=O)c1cccc([N+](=O)[O-])c1` [compound 23], the melting point was found to be 177 °C. The inhibition at 100 ppm in data set [1] turned out to be 100%. Further, the inhibition at 100 ppm in data set [2] came out at 100%.

On to `Cc1cc(C23CC4CC(CC(C4)C2)C3)ccc1NS(=O)(=O)c1ccccc1Cl` [compound 25], for which the melting point came to 200 °C. Moreover, the inhibition at 100 ppm in data set [1] amounted to 93%. In addition, the inhibition at 100 ppm in data set [2] amounted to 89%.

In turn, `Cc1ccc(NC(=O)c2cc([N+](=O)[O-])ccc2Cl)c(C)c1` [compound 26] had a melting point of 206 °C. The inhibition at 100 ppm in data set [1] turned out to be 30%. Besides, in data set [2], the inhibition at 100 ppm was 82%.

In turn, `COc1ccc(NC(=O)c2cc([N+](=O)[O-])ccc2Cl)cc1` [compound 28] showed a melting point of 154 °C. Moreover, in data set [1], the inhibition at 100 ppm came out at 100%. Besides, the inhibition at 100 ppm in data set [2] was 100%.

Take `CSc1ccc(NC(=O)c2cc([N+](=O)[O-])ccc2Cl)cc1` [compound 29]: the melting point worked out at 162 °C. The inhibition at 100 ppm in data set [1] turned out to be 100%. In addition, the inhibition at 100 ppm in data set [2] amounted to 98%.

In the case of `O=C(Nc1ccc(C(F)(F)F)cc1)c1cc([N+](=O)[O-])ccc1Cl` [compound 30], the melting point was 176 °C. Besides, the inhibition at 100 ppm in data set [1] is 100%. The inhibition at 100 ppm in data set [2] amounted to 100%.

With `Cc1cc(Oc2ccc(C(F)(F)F)cc2)ccc1NC(=O)c1cc([N+](=O)[O-])ccc1Cl` [compound 31], the melting point was 196 °C. The inhibition at 100 ppm in data set [1] was found to be 63%. For the same compound, the inhibition at 100 ppm in data set [2] is 62%.

Take `O=C(Nc1ccc(Sc2ccc(C(F)(F)F)cn2)cc1)c1cc([N+](=O)[O-])ccc1Cl` [compound 32]: the melting point was found to be 189 °C. The inhibition at 100 ppm in data set [1] worked out at 98%. The inhibition at 100 ppm in data set [2] was 99%.

`O=C(Nc1cccc(C(F)(F)F)c1)c1cc([N+](=O)[O-])ccc1Cl` [compound 33] showed a melting point of 168 °C. Also, the inhibition at 100 ppm in data set [1] is 100%. The inhibition at 100 ppm in data set [2] turned out to be 100%.

With `COC(=O)c1cccc(C(=O)Nc2ccc(C34CC5CC(CC(C5)C3)C4)cc2C)c1` [compound 34], the melting point worked out at 184 °C. For the same compound, in data set [1], the inhibition at 100 ppm worked out at 97%. Besides, the inhibition at 100 ppm in data set [2] came out at 88%.

As to `Cc1cc(C23CC4CC(CC(C4)C2)C3)ccc1NC(=O)c1cccc(C(=O)O)c1` [compound 35], the melting point came to 232 °C. The inhibition at 100 ppm in data set [1] was determined as 100%. In data set [2], the inhibition at 100 ppm stood at 100%.

`Cc1cc(C23CC4CC(CC(C4)C2)C3)ccc1NC(=O)c1cc([N+](=O)[O-])ccc1C` [compound 36] displayed a melting point of 198 °C. The inhibition at 100 ppm in data set [1] stood at 85%. In addition, the inhibition at 100 ppm in data set [2] was determined as 81%.

As for `O=C(Nc1ccccc1Oc1ccccc1)c1cc([N+](=O)[O-])ccc1Cl` [compound 37], the melting point turned out to be 110 °C. Moreover, in data set [1], the inhibition at 100 ppm is 100%. Moreover, in data set [2], the inhibition at 100 ppm is 97%.

On to `O=C(Nc1ccccc1-c1ccccc1)c1cc([N+](=O)[O-])ccc1Cl` [compound 38], for which the melting point turned out to be 154 °C. In addition, the inhibition at 100 ppm in data set [1] was determined as 93%. In data set [2], the inhibition at 100 ppm amounted to 86%.

The compound `O=C(Nc1cccc(Oc2ccccc2)c1)c1cc([N+](=O)[O-])ccc1Cl` [compound 40] displayed a melting point of 103 °C. In addition, in data set [1], the inhibition at 100 ppm came out at 100%. Moreover, the inhibition at 100 ppm in data set [2] was determined as 100%.

Compound `Cc1cc(C23CC4CC(CC(C4)C2)C3)ccc1NS(=O)(=O)c1cc([N+](=O)[O-])ccc1C` [compound 44] had a melting point of 241 °C. Also, in data set [1], the inhibition at 100 ppm was 100%. Further, the inhibition at 100 ppm in data set [2] worked out at 93%.

`Cc1cc(C23CC4CC(CC(C4)C2)C3)ccc1NC(=O)c1cc([N+](=O)[O-])ccc1F` [compound 45] gave a melting point of 198 °C. Further, the inhibition at 100 ppm in data set [1] came out at 99%. In addition, the inhibition at 100 ppm in data set [2] was 99%.
